Measurements published in patent US10501453B2, “Benzothiazole or benzoxazole compounds as SUMO activators” (Icahn School of Medicine at Mount Sinai, priority 2012, dated 2019).
≈ marks a conversion by molar mass, not a printed value.

Experiments:
[1] = test system: SERCA2a; test: SERCA2a SUMOylation assay in HEK-293 cells (immunoprecipitation/immunoblotting); assay type: cell-based; details: compared with DMSO control; 10 μM
Description: (§1) The following antibodies were used for immunoblotting and immunoprecipitation (IP): polyclonal anti-SERCA2a (21th century Biochem Inc.), monoclonal anti-GAPDH (Sigma-Aldrich, catalog no. G8795), monoclonal anti-SUMO 1 (Cell Signaling Technology Inc., catalog no. 4930), anti-mouse horseradish peroxidase (HRP) (Pierce Biotechnology Inc., catalog no. 32430), and anti-rabbit HRP (Pierce Biotechnology Inc., catalog no. 32460). YFP-tagged SUMO1, pcDNA3.0-SERCA2a, and HA-tagged Ubc9 plasmids were used for the transfection. The plasmid DNA was amplified in the Escherichia coli strain DH5a and extracted by using a commercial purification kit (Qiagen, catalog no. 12263). Purified plasmid was resuspended in sterile TE buffer (10 mM Tris-HCl and 1 mM EDTA, pH 7.6). Only the preparation highest purity (A260/A280>1.8) was used for transfection. 1 μg of each plasmid was used for transfection. HEK-293 cells (American Type Culture Collection, catalog no. CRL-1873) were grown at 37° C. and under a 5% CO2 humidified atmosphere in Dulbecco's modified Eagle's medium (DMEM, Cellgro, catalog no. 10-0 13-CM) containing 10% fetal bovine serum (SAFC Bioscience, catalog no. 12107) and 100 i.u of penicillin/ml and 100 μg of streptomycin/ml. HEK-293 cells were seeded at a density of 3-5×10^5 cells per 60 mm culture dish in DMEM. The cells were transiently transfected using Lipofectamine 2000 (Invitrogen, catalog no. 11668) with indicated expression plasmids. After 24 hours, the cells were treated with either small molecules or dimethyl sulfoxide (DMSO, Sigma-Aldrich, catalog no. D2650).
(§2) Each compound was added at 10 μM. DMSO was used as a control. After 24 hours at 37° C., SERCA2a SUMOylation and functional analysis were determined.
Equal amounts of protein from either small molecule treated or DMSO treated cells or immunoprecipitates were resolved by 7.5% SDS-PAGE and transferred to nitrocellulose membranes (Bio-Rad, catalog no. 162-0112). The membranes were blocked for 1 hour at room temperature with 5% non-fat milk (Cell Signaling Technology Inc., catalog no. 9999) in TBST (10 mM Tris-HCl, 150 mM NaCl, and 0.05% tween-20, pH 8.0). The blots were incubated with specific primary antibodies at 4° C. for overnight. The blots were then washed five times for 10 minutes each with TBST and incubated for 1 hour with HRP-conjugated secondary antibodies in TBST with 5% non-fat milk. After five times TBST washes, the protein bands were visualized with enhanced chemiluminescence (Pierce Biotechnology Inc., catalog no. 32132) and exposed to x-ray film (Denville Scientific Inc., catalog no. E3012). GAPDH expression provided an internal control.
Post-transfection (48 hours), the HEK-293 cells were rinsed twice with phosphate-buffered saline (PBS, Cellgro, catalog no. 21-040-CM) and lysed in 1% Nonidet P-40 lysis buffer (Boston Bioproducts, catalog no. BP-119) with 10 mM N-ethylmaleimide (NEM, Sigma-Aldrich, catalog no. N3876) and […] inhibitor cocktail (Complete Mini Tablet, Roche Applied Science, catalog no. 11836153001). 2 mg of protein were mixed with the anti-SERCA2a antibodies for overnight at 4° C. in lysis buffer. Pre-washed protein A-Separose beads (Pierce Biotechnology Inc., catalog no. 20333) was added to each sample and incubated 1 hour at 4° C. with gentle rocking. Immunocomplexes were washed with lysis buffer three times and precipitated by centrifugation at 12000×g for 10 seconds. The immunocomplexes were resuspended in SDS sample buffer and subjected to immunoblotting. Controls for the immunoprecipitations were performed using an anti-rabbit IgG equal to that of the primary precipitating antibody. Ten percent of whole cell lysates used in the immunoprecipitation was loaded for subsequent immunoblotting.
The ability of the Example compound to SUMOylate SERCA2a was examined using an in vitro system in HEK 293 cells where both SERCA2a and SUMO 1 are expressed. […]

[2] = test system: HEK-293 cells; test: Toxicity (Table 2; cytotoxicity in the compound screen)
[3] = Solubility (Table 2)
[4] = test system: YFP-SUMO1; test: YFP-SUMO1 accumulation (cell image) in HEK-293 cells expressing YFP-SUMO1 and pcDNA3.0-SERCA2a; assay type: cell-based; details: increase vs. DMSO; for fold induction at 10 µM: Homo sapiens, HEK293, 24 hours; for YFP accumulation: 10 μM, 24 hours
Description: as §1, §2
Cellular permeability and potential activity of the compounds were examined by tracking of the YFP-SUMO1. HEK-293 cells expressing YFP-SUMOI and pcDNA3.0-SERCA2a were incubated with either 10 μM DMSO or 10 μM small molecules for 24 hours at 37° C. Fluorescent signals were monitored by fluorescence microscopy. HA-tagged Ubc9 expressing cells were served as a positive control.
The ability of the Example compound to SUMOylate SERCA2a was examined using an in vitro system in HEK 293 cells where both SERCA2a and SUMO 1 are expressed. The cellular permeability and potential activity of the Example compounds was examined by tracking of the YFP-SUM01. HEK-293 cells expressing YFP-SUM01 and pcDNA3.0-SERCA2a were treated with either 10 μM DMSO or 10 μM indicated Example 1 for 24 hrs. Fluorescent signals were monitored by fluorescence microscopy. HA-Ubc9 expressing cells were served as a positive control. The SERCA2a SUMOylation profiling was then analyzed by using the same cells (FIG. 1B, WCL, whole cell lysates; S-SERCA2a, SUMOylated SERCA2a).

[5] = DMSO, organic solvent or mixture

Compound	SERCA2a SUMOylation [1]	Toxicity [2]	solubility [3, 5] [mM]	fold induction at 10 µM [4]	solubility ([3]; in DMSO (printed for the 10 mM cells))	YFP accumulation [4]
COc1cccc2sc(Nc3nnc(-c4ccc(F)cc4)o3)nc12 [Example 5, 5-(4-fluorophenyl)-N-(4-methoxybenzo[d]thiazol-2-yl)-1,3,4-oxadiazol-2-amine]	Not statistically significant	Non-toxic	10 (≈ 3420 µg/mL)	2.54		
COc1ccc(-c2nnc(Nc3nc4c(OC)cccc4s3)o2)c(OC)c1 [Example 6, 5-(2,4-dimethoxyphenyl)-N-(4-methoxybenzo[d]thiazol-2-yl)-1,3,4-oxadiazol-2-amine]	Not statistically significant	30%	10 (≈ 3840 µg/mL)	2.93		
Fc1cccc2sc(Nc3nnc(-c4ccccc4)o3)nc12 [Example 7, N-(4-fluorobenzo[d]thiazol-2-yl)-5-phenyl-1,3,4-oxadiazol-2-amine]	Not statistically significant	Non-toxic	10 (≈ 3120 µg/mL)	2.2		
COc1ccc2nc(Nc3nnc(-c4ccccc4OC)o3)sc2c1 [Example 8, N-(6-methoxybenzo[d]thiazol-2-yl)-5-(2-methoxyphenyl)-1,3,4-oxadiazol-2-amine]	Not statistically significant	30%	10 (≈ 3540 µg/mL)	2.37		
COc1ccc(-c2nnc(Nc3nc4ccc(OC)cc4s3)o2)cc1 [Example 9, N-(6-methoxybenzo[d]thiazol-2-yl)-5-(4-methoxyphenyl)-1,3,4-oxadiazol-2-amine]	Not statistically significant	Toxic			Crystallized at 2.5	Active
COc1ccc2nc(Nc3nnc(-c4ccc(Cl)cc4)o3)sc2c1 [Example 10, 5-(4-chlorophenyl)-N-(6-methoxybenzo[d]thiazol-2-yl)-1,3,4-oxadiazol-2-amine]	Not statistically significant	> 50%	< 2.5			Active
Fc1ccc2nc(Nc3nnc(-c4ccccc4Cl)o3)sc2c1 [Example 11, 5-(2-chlorophenyl)-N-(6-fluorobenzo[d]thiazol-2-yl)-1,3,4-oxadiazol-2-amine]	Not statistically significant	> 50%	< 2.5			Active
Fc1ccc(-c2nnc(Nc3nc4ccc(F)cc4s3)o2)cc1 [Example 12, N-(6-fluorobenzo[d]thiazol-2-yl)-5-(4-fluorophenyl)-1,3,4-oxadiazol-2-amine]	Not statistically significant	> 50%	< 2.5			Active
COc1cccc(-c2nnc(Nc3nc4ccc(F)cc4s3)o2)c1 [Example 13, N-(6-fluorobenzo[d]thiazol-2-yl)-5-(3-methoxyphenyl)-1,3,4-oxadiazol-2-amine]	Not statistically significant	> 50%	< 2.5			Active
COc1cccc(-c2nnc(Nc3nc4cc(OC)ccc4s3)o2)c1 [Example 15, N-(5-methoxybenzo[d]thiazol-2-yl)-5-(3-methoxyphenyl)-1,3,4-oxadiazol-2-amine]	Not statistically significant	> 50%	< 2.5			Active
COc1ccc(-c2nnc(Nc3nc4cc(OC)ccc4s3)o2)cc1 [Example 16, N-(5-methoxybenzo[d]thiazol-2-yl)-5-(4-methoxyphenyl)-1,3,4-oxadiazol-2-amine]	Not statistically significant	> 50%	< 2.5			Active
COc1ccc(-c2nnc(Nc3nc4cc(OC)c(OC)cc4s3)o2)cc1 [Example 17, N-(5,6-dimethoxybenzo[d]thiazol-2-yl)-5-(4-methoxyphenyl)-1,3,4-oxadiazol-2-amine]	Not statistically significant	Non-toxic	5 (≈ 1920 µg/mL)	2.2		
COc1ccc(-c2nnc(Nc3nc4ccc(SC)cc4s3)o2)cc1 [Example 18, 5-(4-methoxyphenyl)-N-(6-(methylthio)benzo[d]thiazol-2-yl)-1,3,4-oxadiazol-2-amine]	Not statistically significant	> 50%	< 2.5			Active
